Test results published in ChEMBL document CHEMBL5550165, “Novel quinoxaline analogs as telomeric G-quadruplex ligands exert antitumor effects related to enhanced immunomodulation” (Eur J Med Chem, 2024).
Activity calls are given as the source filed them. The rule behind the calls is not given here.

What was measured:
[1] = tested on: MDA-MB-231; experiment: Induction of cell cycle arrest in human MDA-MB-231 cells assessed as accumulation of cells at G2/M phase at 1 uM incubated for 24 hrs by RNase/PI staining based flow cytometry (reference value: 11.3 %); assay type: functional
[2] = tested on: 4T1; experiment: Antitumor immunity against mouse 4T1 cells implanted in BALB/c mouse assessed as increase in proportion of CD4+ T cells in spleen at 10 mg/kg,ip every other day for 14 days by flow cytometry; assay type: functional, organism-based; conditions: time 14.0 day
[3] = tested on: 4T1; experiment: Antitumor immunity against mouse 4T1 cells implanted in BALB/c mouse assessed as increase in proportion of CD8+ T cells in spleen at 10 mg/kg,ip every other day for 14 days by flow cytometry; assay type: functional, organism-based; conditions: time 14.0 day
[4] = tested on: Quadruplex DNA; experiment: Binding affinity to KRAS G-quadruplex telomeric DNA (unknown origin) assessed as […] by measuring melting temperature by FRET assay; assay type: nucleic-acid assay

What does the source list for `CN(C)CCN(C)c1ccc(-c2nc3ccc(C(F)(F)F)cc3nc2-c2ccc(N(C)CCN(C)C)cc2)cc1`?
Activity [1]: 11.4%; Activity [2]: Active; Activity [3]: Active; Activity [4]: Active
